From PubChem BioAssay (NCI) come the findings set out here.

Test systems include HOP-92 NSCLC; OVCAR-8 ovarian; UACC-62 melanoma; HCC-2998 colon; A549 NSCLC; RPMI-8226 leukemia; 786-0 renal; KM12 colon; UO-31 renal; NCI-H460 lung.
What all share (assay): NCI-60 cell line screen, 48 h

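Tested at 5 concentrations; 48 h exposure; 96-well plates; endpoints linearly interpolated, else capped at highest concentration. Abbreviation: GI50, concentration required for 50% inhibition of growth. At the TGI there is no net growth.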 A value given as a limit tells only on which side of the number the result lay.

As to `Cn1cc(-c2nonc2-c2cn(C)c3ccc(Br)cc23)c2ccccc21`, the GI50 with HOP-92 NSCLC is 5.16 µM; in the assay on OVCAR-8 ovarian, 5.14 µM; in the assay on UACC-62 melanoma it was 3.37 µM; in the assay with HCC-2998 colon, 5.45 µM; in the assay with A549 NSCLC, 5.29 µM; in the assay with RPMI-8226 leukemia it was 3320 nM. Also, the GI50 was 6.18 µM in the assay on 786-0 renal, 2.63 µM with KM12 colon, 3.39 µM in the assay with UO-31 renal and 3310 nM with NCI-H460 lung. Besides, the TGI in the assay with HOP-92 NSCLC, with OVCAR-8 ovarian, in the assay with UACC-62 melanoma, with HCC-2998 colon, in the assay with A549 NSCLC and with RPMI-8226 leukemia was greater than 100 µM each time. Moreover, the TGI with 786-0 renal, in the assay with KM12 colon, with UO-31 renal and in the assay on NCI-H460 lung was greater than 100 µM each time.

Turning to `O=C(NCCS(=O)(=O)N1C(=O)C2CCCN2C(=O)[C@@H]1Cc1ccccc1)OCc1ccccc1` (some centres undefined), the TGI was greater than 100 µM in the assay on HOP-92 NSCLC; greater than 100 µM in the assay on OVCAR-8 ovarian; greater than 100 µM in the assay on UACC-62 melanoma; 73.2 µM in the assay with HCC-2998 colon; greater than 100 µM with A549 NSCLC; 64.4 µM in the assay on RPMI-8226 leukemia. The TGI in the assay with 786-0 renal, in the assay with KM12 colon, in the assay with UO-31 renal and in the assay on NCI-H460 lung was greater than 100 µM each time.

As to `O=C1c2cccnc2-c2nc(-c3ccccc3)cc3c2c1nc1ccccc13`, the GI50 in the assay on HOP-92 NSCLC was 20.3 µM; in the assay with OVCAR-8 ovarian it was 3.06 µM; in the assay on UACC-62 melanoma it was 3.74 µM; in the assay on HCC-2998 colon, 4.95 µM; with A549 NSCLC, 6.97 µM; in the assay on RPMI-8226 leukemia, 210 nM. Also, the GI50 with 786-0 renal was 5.88 µM; in the assay with KM12 colon, 4.61 µM; in the assay on UO-31 renal, 3.8 µM; in the assay on NCI-H460 lung, 844 nM. The TGI is 80.4 µM with HOP-92 NSCLC; greater than 63.1 µM in the assay with OVCAR-8 ovarian; 9.01 µM with UACC-62 melanoma; 18.5 µM in the assay on HCC-2998 colon; 21 µM in the assay on A549 NSCLC; 20.1 µM in the assay with 786-0 renal. For the same molecule, the TGI in the assay on KM12 colon stood at 16.1 µM; in the assay on UO-31 renal, 11.2 µM; in the assay with NCI-H460 lung it was 3.74 µM.

For `CC1(C)CCC(CN2CCN(c3ccc(C(=O)NS(=O)(=O)c4ccc(NCC5CCOCC5)c([N+](=O)[O-])c4)c(Oc4cnc5[nH]ccc5c4)c3)CC2)=C(c2ccc(Cl)cc2)C1`, the GI50 was 1.29 µM in the assay on HOP-92 NSCLC; 3.22 µM with OVCAR-8 ovarian; 0.782 µM with UACC-62 melanoma; 2.1 µM in the assay with HCC-2998 colon; 2.4 µM in the assay on A549 NSCLC; 1780 nM in the assay with RPMI-8226 leukemia. Besides, the GI50 was 3.54 µM in the assay with 786-0 renal, 2.98 µM in the assay with KM12 colon, 2.57 µM with UO-31 renal and 2640 nM in the assay with NCI-H460 lung. Besides, the TGI in the assay on HOP-92 NSCLC was found to be 2.77 µM; in the assay with OVCAR-8 ovarian, 16.5 µM; with UACC-62 melanoma it was 2.16 µM; in the assay with HCC-2998 colon, 3.92 µM; in the assay on A549 NSCLC, 11.8 µM; in the assay with RPMI-8226 leukemia, 5.54 µM. Also, the TGI with 786-0 renal worked out at 12.5 µM; in the assay on KM12 colon, 9.86 µM; with UO-31 renal, 8.26 µM; in the assay on NCI-H460 lung, 8.86 µM.

Turning to `CCOc1ccc(NC(=O)/C(=C/c2ccccc2)C(C)=O)cc1`, the TGI in the assay with HOP-92 NSCLC amounted to 28 µM; with OVCAR-8 ovarian, 43.1 µM; with UACC-62 melanoma, 20.1 µM; in the assay with HCC-2998 colon, 27.1 µM; in the assay on A549 NSCLC, 60.8 µM; in the assay with RPMI-8226 leukemia, 10.6 µM. The TGI in the assay with 786-0 renal came out at 24.8 µM; in the assay with KM12 colon, 27.5 µM; in the assay on UO-31 renal, 21.6 µM; in the assay with NCI-H460 lung, 30.9 µM.

Turning to `COc1ccc(C=O)c(N(C)C(=O)C(C)(C)C)c1`, the TGI in the assay on HOP-92 NSCLC, in the assay with OVCAR-8 ovarian, in the assay with UACC-62 melanoma, in the assay on HCC-2998 colon, in the assay with A549 NSCLC and in the assay on RPMI-8226 leukemia was greater than 100 µM each time. The TGI in the assay on 786-0 renal, in the assay on KM12 colon, in the assay on UO-31 renal and in the assay on NCI-H460 lung was greater than 100 µM each time.

For the molecule `C=C1C(=O)C23C(O)C1CCC2C12CO[C@]3(O)[C@@H](O)C1C(C)(C)CCC2O` (some centres undefined), the TGI in the assay with HOP-92 NSCLC was 8.99 µM; with OVCAR-8 ovarian it was 20.5 µM; in the assay on UACC-62 melanoma, 26.4 µM; with HCC-2998 colon it was 30.4 µM; in the assay on A549 NSCLC, 34.6 µM; in the assay on RPMI-8226 leukemia it was greater than 100 µM. The TGI in the assay on 786-0 renal is 25.1 µM; in the assay on KM12 colon, 31.7 µM; with UO-31 renal it was 31.1 µM; with NCI-H460 lung, 29.2 µM.

As to `CC1OC(OC2C(OC3CCC4(C)C(CCC5(C)C4CC=C4C6CC(C)(C)CCC6(CO)C(O)CC45C)C3(C)C)OC(C(=O)O)C(OC3OC(COC4OC(CO)C(O)C(O)C4O)C(O)C(O)C3O)C2O)C(O)C(O)C1O` (centres undefined), the GI50 is 3.56 µM with HOP-92 NSCLC; 13.5 µM with OVCAR-8 ovarian; 9.64 µM in the assay on UACC-62 melanoma; 1.73 µM with HCC-2998 colon; 12.2 µM in the assay on A549 NSCLC; 7790 nM in the assay with RPMI-8226 leukemia. For the same molecule, the GI50 in the assay on 786-0 renal was 1.15 µM; in the assay on KM12 colon it was 3.25 µM; in the assay on UO-31 renal it was 5.45 µM; with NCI-H460 lung, 12100 nM. Further, the TGI was 15.3 µM with HOP-92 NSCLC; 28.5 µM with OVCAR-8 ovarian; 20.6 µM with UACC-62 melanoma; 4.45 µM in the assay with HCC-2998 colon; 28.1 µM in the assay with A549 NSCLC; 23.5 µM in the assay on RPMI-8226 leukemia. Further, the TGI was determined as 3.01 µM in the assay with 786-0 renal, 14.1 µM in the assay with KM12 colon, 15.9 µM with UO-31 renal and 24.5 µM in the assay with NCI-H460 lung.

In the case of `CCN1CCC(O)(c2ccccc2)C(C(=O)c2ccccc2)C1` (centres undefined), the TGI with HOP-92 NSCLC is 36.1 µM; in the assay on OVCAR-8 ovarian, 63.7 µM; in the assay on UACC-62 melanoma, greater than 69.2 µM; in the assay with HCC-2998 colon, greater than 100 µM; with A549 NSCLC, greater than 100 µM; in the assay with RPMI-8226 leukemia it was 33.4 µM. In addition, the TGI in the assay with 786-0 renal was 31 µM; in the assay on KM12 colon it was greater than 100 µM; in the assay on UO-31 renal, greater than 70 µM; in the assay on NCI-H460 lung it was greater than 100 µM.
